Assay results from publication PMC6522510 (Nature Communications, 2019).
Structures can show the parent of a compound that is named as a salt. Where two headings read alike, the source gives them in different places. Numbered stars: 1 amine (or outer) side, 2 acyl side, 3 side chain; on linkers, the order of the positions; unused ones are H or OH. Square brackets hold non-standard residues; d marks the D form. Peptide text beside a SMILES is read from it. Nle = CCCC[C@H](N)C(=O)O; CO = O=C([*:1])[*:2]

What was measured:
Set-up in all cases: species or system AML cell lines (8); Primary HTS, single concentration about 10 uM, Cell Titer Glo viability; log10 luminescence, per cent inhibition relative to cycloheximide control
Details in all cases: 72 h, relative to cycloheximide control, log10 luminescence, inhibitor
CHRF288-11 = tested on: CHRF288-11
CMS = tested on: CMS
U937 = tested on: U937
MV4-11 = tested on: MV4-11
MOLM-13 = tested on: MOLM-13
ML-2 = tested on: ML-2
CMK = tested on: CMK
M07e = tested on: M07e

Structure (SMILES)	CHRF288-11 %inh (CHRF288-11)	CMS %inh (CMS)	U937 %inh (U937)	MV4-11 %inh (MV4-11)	MOLM-13 %inh (MOLM-13)	ML-2 %inh (ML-2)	CMK %inh (CMK)	M07e %inh (M07e)	CHRF288-11 %inh (CHRF288-11; CHRF288-11 %inh, 10 µM)	CMS %inh (CMS; CMS %inh, 10 µM)	U937 %inh (U937; U937 %inh, 10 µM)	MV4-11 %inh (MV4-11; MV4-11 %inh, 10 µM)	MOLM-13 %inh (MOLM-13; MOLM-13 %inh, 10 µM)	ML-2 %inh (ML-2; ML-2 %inh, 10 µM)	CMK %inh (CMK; CMK %inh, 10 µM)	M07e %inh (M07e; M07e %inh, 10 µM)
CCCCNC(=O)[C@@H]1Cc2ccccc2N1C(=O)[C@@H](N)CC [SJ000772394-1, BUTABINDIDE OXALATE]	-4.064%	0.61%	2.937%	-1.569%	0.241%	-0.1457%	2.146%	-2.465%								
CC(C)[C@H](NS(=O)(=O)c1ccc(-c2ccc(Br)cc2)cc1)C(=O)O [SJ000772395-1, PD 166793]	2.843%	-2.252%	3.907%	-0.00905%	0.2317%	-0.8645%	1.088%	-2.219%								
CCCC[C@@H](C=O)NC(=O)[C@H](CC(C)C)NC(=O)[C@H](CC(C)C)NC(C)=O [SJ000772397-1, MG 101 | ALLN] (Ac-Leu-Leu-[Nle]-aldehyde)	140.2%	98.27%	52.66%	82.08%	102.2%	57.14%	126.5%	121%								
Cc1ccc(/C=C2\CNC/C(=C\c3ccc(C)cc3)C2=O)cc1 [SJ000772404-1, NSC 632839 HYDROCHLORIDE]	82.45%	103.5%	84.59%	77.36%	99.63%	61.57%	116.6%	129.2%								
N#Cc1ccc(NCCNCC(=O)N2CCC[C@H]2C#N)nc1 [SJ000772405-1, NVP DPP 728 DIHYDROCHLORIDE]	-4.67%	0.6231%	-2.969%	-0.757%	-0.2952%	-1.409%	-0.003306%	-0.0114%								
O=C(O)Cc1cccc2c(=O)c([N+](=O)[O-])c(-c3ccccc3[N+](=O)[O-])oc12 [SJ000772406-1, AMINOPEPTIDASE N INHIBITOR]	5.038%	-0.7017%	-3.753%	-1.986%	-3.246%	1.312%	-2.215%	-0.1255%								
CC(C)[C@H](NC(=O)[C@H](CCCNC(=N)N)NC(=O)N[C@@H](Cc1ccccc1)C(=O)O)C(=O)N[C@H](C=O)CCCNC(=N)N [SJ000772410-1, ANTIPAIN, DIHYDROCHLORIDE] ({Phe-CO}-Arg-Val-Arg-aldehyde)	4.85%	2.317%	-3.748%	-1.834%	-3.916%	0.8211%	-5.865%	-0.5062%								
CNC(=O)[C@@H](NC(=O)[C@H](CC(C)C)[C@H](O)C(=O)NO)C(C)(C)C [SJ000772411-1]									14.63%	-1.756%	2.038%	-4.036%	2.673%	1.691%	-3.077%	-0.5084%
CNC(=O)[C@@H](NC(=O)[C@H](CC(C)C)[C@H](O)C(=O)NO)C(C)(C)C [SJ000772411-2]									28.21%	3.256%	3.1%	3.499%	10.77%	2.823%	5.663%	4.087%
COC(=O)[C@H](CC(C)C)NC(=O)[C@@H](O)[C@H](N)Cc1ccccc1 [SJ000772416-1, BESTATIN METHYL ESTER]	5.118%	2.851%	22.26%	8.922%	-1.654%	3.75%	1.43%	3.275%								
